Laboratory results from patent US9186402B2 (Colorado State University Research Foundation, priority 2008, dated 2015).
Read-outs that look alike come from different tables or passages of the source. One block for each compound: values may come before it.

Columns and labels:
[1] = amide bond, HATU, CH3CN
[2] = molecular target: HDAC1 (Homo sapiens, UniProt Q13547); assay: HDAC biochemical assay (IC50), 384-well homogeneous; conditions: reducing conditions (TCEP 200 μM); read-out: Biochemical inhibition of human HDACs (IC50) HDAC1
Sequence of HDAC1 (Q13547 whole entry): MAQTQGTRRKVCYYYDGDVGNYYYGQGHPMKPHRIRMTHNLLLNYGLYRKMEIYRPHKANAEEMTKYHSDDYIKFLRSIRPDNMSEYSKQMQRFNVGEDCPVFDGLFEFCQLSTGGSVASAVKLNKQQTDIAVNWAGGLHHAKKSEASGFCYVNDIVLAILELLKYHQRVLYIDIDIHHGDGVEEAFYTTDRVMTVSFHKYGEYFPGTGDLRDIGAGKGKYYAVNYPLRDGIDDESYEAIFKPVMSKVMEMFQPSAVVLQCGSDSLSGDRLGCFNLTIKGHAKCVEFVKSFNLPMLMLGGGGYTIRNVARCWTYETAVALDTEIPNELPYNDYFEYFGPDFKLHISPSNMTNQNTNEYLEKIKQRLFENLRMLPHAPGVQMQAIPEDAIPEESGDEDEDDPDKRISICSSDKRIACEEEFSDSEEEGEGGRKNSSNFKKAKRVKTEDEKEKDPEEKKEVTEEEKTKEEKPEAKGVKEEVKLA
Method: (§1) The inhibitory effect of compounds on deacetylase isoenzyme function was determined in vitro using an optimized homogenous assay performed in 384-well plate format. […] Data are analyzed on a plate-by-plate basis for the linear range of fluorescence over time. Data from the plate capture corresponding to the mid-linear range is imported into analytical software and annotated with well identity and compound concentration (Spotfire DecisionSite). Replicate experimental data from incubations with inhibitor are normalized to control, solvent-only wells and IC-50 is deteremined by logistic regression.
(§2) A liquid handling device then transferred a tripeptide substrate terminating in acetyl-lysine and amide conjugated to 4-methyl-7-aminocoumarin (AMC), recombinant human histone deacetylase (BPS Bioscience, San Diego, Calif.), and recombinant human trypsin (Sigma-Aldrich, St. Louis, Mo.). Following deacetylase hydrolysis of acetyl-lysine, trypsin cleavage liberated the AMC fluorophore. Kinetic (fluorescence per unit time) and end-point (total fluorescence) data were captured by a multilabel plate reader. Replicate data were analyzed by curve-fit using logistic regression (Snotfire Decision—Site).

[3] = molecular target: T1, HDAC6 (Homo sapiens, UniProt Q9UBN7); assay: as above; conditions: read-out: Biochemical inhibition of human HDACs (IC50) HDAC6
T1 sequence (Q9UBN7 1-1215): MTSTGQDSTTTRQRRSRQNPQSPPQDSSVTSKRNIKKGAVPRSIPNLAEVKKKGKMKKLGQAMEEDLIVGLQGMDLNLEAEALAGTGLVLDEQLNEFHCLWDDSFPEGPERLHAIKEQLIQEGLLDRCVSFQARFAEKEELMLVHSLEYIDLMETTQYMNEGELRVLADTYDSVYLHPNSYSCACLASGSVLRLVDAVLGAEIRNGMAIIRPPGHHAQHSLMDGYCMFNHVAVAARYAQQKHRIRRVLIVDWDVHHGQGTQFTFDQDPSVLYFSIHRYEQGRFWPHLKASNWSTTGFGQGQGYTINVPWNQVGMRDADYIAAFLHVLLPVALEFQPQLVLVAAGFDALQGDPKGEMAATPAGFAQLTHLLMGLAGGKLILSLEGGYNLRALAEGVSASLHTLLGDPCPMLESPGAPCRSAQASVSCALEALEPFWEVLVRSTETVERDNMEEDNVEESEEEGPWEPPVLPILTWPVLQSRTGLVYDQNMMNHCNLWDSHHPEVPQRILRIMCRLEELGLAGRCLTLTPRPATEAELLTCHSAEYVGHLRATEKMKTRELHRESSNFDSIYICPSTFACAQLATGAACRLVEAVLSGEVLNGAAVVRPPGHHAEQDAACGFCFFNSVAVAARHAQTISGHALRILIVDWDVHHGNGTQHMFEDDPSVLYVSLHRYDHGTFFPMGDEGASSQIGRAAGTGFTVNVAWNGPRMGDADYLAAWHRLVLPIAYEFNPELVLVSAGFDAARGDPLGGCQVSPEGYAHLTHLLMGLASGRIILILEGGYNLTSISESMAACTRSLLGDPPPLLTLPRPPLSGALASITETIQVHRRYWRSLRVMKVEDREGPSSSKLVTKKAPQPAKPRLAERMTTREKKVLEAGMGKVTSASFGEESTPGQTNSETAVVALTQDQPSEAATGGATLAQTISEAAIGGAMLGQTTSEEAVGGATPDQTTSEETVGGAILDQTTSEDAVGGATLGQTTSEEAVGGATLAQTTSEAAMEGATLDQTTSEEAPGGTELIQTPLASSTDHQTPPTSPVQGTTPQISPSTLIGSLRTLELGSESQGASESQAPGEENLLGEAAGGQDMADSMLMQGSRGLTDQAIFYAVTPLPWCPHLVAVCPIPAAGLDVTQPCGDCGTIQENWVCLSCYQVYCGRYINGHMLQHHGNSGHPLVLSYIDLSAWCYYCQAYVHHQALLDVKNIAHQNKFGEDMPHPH
Method: as §1, §2

[4] = molecular target: T2, HDAC2 (Homo sapiens, UniProt Q92769); assay: as above; conditions: reducing conditions (TCEP 200 μM); read-out: Biochemical inhibition of human HDACs (IC50) HDAC2
T2 sequence (Q92769 whole entry): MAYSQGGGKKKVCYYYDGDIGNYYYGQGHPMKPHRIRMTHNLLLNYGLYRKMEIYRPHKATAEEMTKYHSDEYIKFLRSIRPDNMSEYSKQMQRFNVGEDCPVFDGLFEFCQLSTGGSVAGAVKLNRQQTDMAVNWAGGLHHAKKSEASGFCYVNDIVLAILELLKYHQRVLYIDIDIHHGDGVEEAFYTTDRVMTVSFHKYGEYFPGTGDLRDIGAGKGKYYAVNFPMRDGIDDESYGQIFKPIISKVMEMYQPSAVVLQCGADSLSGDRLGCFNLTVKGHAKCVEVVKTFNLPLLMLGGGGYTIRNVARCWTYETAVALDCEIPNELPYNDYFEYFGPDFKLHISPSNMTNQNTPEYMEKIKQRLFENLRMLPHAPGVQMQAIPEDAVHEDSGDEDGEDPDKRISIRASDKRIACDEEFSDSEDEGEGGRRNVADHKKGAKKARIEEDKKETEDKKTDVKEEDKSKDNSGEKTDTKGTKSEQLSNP
Method: as §1, §2

[5] = molecular target: HDAC3/NCor2 (Homo sapiens, UniProt O15379); assay: as above; conditions: read-out: Biochemical inhibition of human HDACs (IC50) HDAC3
Sequence of HDAC3/NCor2 (O15379 whole entry): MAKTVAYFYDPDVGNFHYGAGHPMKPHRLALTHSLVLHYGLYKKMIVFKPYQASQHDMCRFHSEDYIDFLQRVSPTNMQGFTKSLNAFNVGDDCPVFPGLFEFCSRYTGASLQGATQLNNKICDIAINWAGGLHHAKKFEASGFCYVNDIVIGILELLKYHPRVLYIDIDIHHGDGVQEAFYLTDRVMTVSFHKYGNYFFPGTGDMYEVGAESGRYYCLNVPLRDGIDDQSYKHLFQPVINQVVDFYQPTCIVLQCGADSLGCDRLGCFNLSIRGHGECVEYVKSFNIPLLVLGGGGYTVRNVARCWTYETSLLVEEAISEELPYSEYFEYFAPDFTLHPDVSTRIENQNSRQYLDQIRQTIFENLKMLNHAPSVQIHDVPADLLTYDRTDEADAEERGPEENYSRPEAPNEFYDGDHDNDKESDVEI
Sequence of HDAC3/NCor2 (Q9Y618 395-489 partner limits assumed): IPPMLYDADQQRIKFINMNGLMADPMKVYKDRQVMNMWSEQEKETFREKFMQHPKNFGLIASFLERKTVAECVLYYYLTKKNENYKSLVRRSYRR
Method: as §1, §2

[6] = molecular target: T2, HDAC2; assay: HDAC2 inhibition, trypsin-coupled kinetic fluorescence homogeneous assay; format: biochemical
Method: To measure the inhibitory effect on deacetylase function in vitro, a continuous kinetic biochemical assay miniaturized to 384-well plate format was optimized.
Fluorescence measurements were obtained in real-time on a Varioskan microtiter plate reader (Thermo). Triplicate experimental data from incubations with inhibitor were normalized to solvent-only wells and analyzed by logistic regression (Spotfire DecisionSite).
A biochemical study of HDAC2 inhibition was carried out using the trypsin-coupled, kinetic fluorescence homogeneous assay described above.

[7] = tested on: HDACs 1, 2 and 3; assay: HDAC biochemical assay, summary statements on Class I HDACs; parameters: species or system human
[8] = tested on: human malignant melanoma cell lines; assay: cell viability by ATP content (Cell TiterGlo), melanoma panel; format: cell-based; conditions: range over panel of human malignant melanoma cell lines, read-out: IC50 melanoma cell proliferation / viability
[9] = reducing conditions (TCEP 200 μM)
[10] = HDAC2, logistic fit of scatter plots, Conc (uM), read-out: X50 (curve fit, activity versus concentration)

SMILES: CC(C)[C@@H]1NC(=O)[C@]2(C)CSC(=N2)c2csc(n2)CNC(=O)C[C@@H](/C=C/CCSC(c2ccccc2)(c2ccccc2)c2ccccc2)NC1=O
ring closure, yield of all isomers ([1]; from COC(=O)C[C@@H](/C=C/CCSC(c1ccccc1)(c1ccccc1)c1ccccc1)NC(=O)[C@@H](NC(=O)[C@]1(C)CSC(c2csc(CNC(=O)OC(C)(C)C)n2)=N1)C(C)C, 0.94 mM, […], 3 steps): 50%

SMILES: CC(C)[C@H]1NC(=O)[C@@]2(C)CSC(=N2)c2csc(n2)CNC(=O)C[C@H](/C=C/CCSC(c2ccccc2)(c2ccccc2)c2ccccc2)OC1=O
ring closure, yield of all isomers ([1]; from CC(C)[C@@H](NC(=O)[C@@]1(C)CSC(c2csc(CNC(=O)OC(C)(C)C)n2)=N1)C(=O)O[C@@H](/C=C/CCSC(c1ccccc1)(c1ccccc1)c1ccccc1)CC(=O)OCC[Si](C)(C)C, 2 steps): 87%

SMILES: C[C@@]12CSC(=N1)c1csc(n1)CNC(=O)C[C@@H](/C=C/CCSC(c1ccccc1)(c1ccccc1)c1ccccc1)OC(=O)[C@@H]1CCCN1C2=O
ring closure, yield of all isomers ([1]; from CC(C)(C)OC(=O)NCc1nc(C2=N[C@](C)(C(=O)N3CCC[C@H]3C(=O)O[C@H](/C=C/CCSC(c3ccccc3)(c3ccccc3)c3ccccc3)CC(=O)OCC[Si](C)(C)C)CS2)cs1, 0.83 mM, […], 2 steps): 43%

IC50 [2]: 1.9 nM
IC50 [3, 9]: 130 nM
IC50 [4]: 4.8 nM
IC50 [5, 9]: 3.8 nM
SMILES: CC(C)C1NC(=O)C2CSC(=N2)c2csc(n2)CNC(=O)CC(C=CCCS)OC1=O (stereo not shown) [Cysteine substitution 22b]

IC50 [2]: > 30000 nM
IC50 [3, 9]: > 30000 nM
IC50 [4]: > 30000 nM
IC50 [5, 9]: > 30000 nM
SMILES: CC(C)[C@@H]1NC(=O)[C@]2(C)CSC(=N2)c2csc(n2)CNC(=O)C[C@@H](C/C=C\CCC(=O)O)OC1=O [Largazole-Azumamide hybrid (9b)]

SMILES: C[C@@]12CSC(=N1)c1csc(n1)CNC(=O)C[C@@H](/C=C/CCS)OC(=O)[C@@H]1CCCN1C2=O [Proline substitution (4)]
IC50 [2]: 110 nM
IC50 [3]: 13000 nM
X50 (curve fit, activity versus concentration) [6]: X50 = 0.7733 uM
IC50 [4]: 800 nM
IC50 [5]: 580 nM

IC50 [3, 9]: 29 nM
IC50 [5, 9]: 1.1 nM
SMILES: CC(C)C1NC(=O)C2(C)CSC(=N2)c2cccc(n2)CNC(=O)CC(C=CCCS)OC1=O (stereo not shown) [Thiazole-pyridine substitution (29b)]
activity against Class I HDACs [7]: sub-nanomolar

IC50 [4]: 120 nM
SMILES: CC(C)[C@@H]1NC(=O)c2csc(n2)-c2csc(n2)CNC(=O)C[C@@H](/C=C/CCS)OC1=O [Thiazole-thiazole (23b)]

IC50 [6, 10]: 708 µM
SMILES: CCCCCCCC(=O)SCC/C=C/[C@@H]1CC(=O)NCc2nc(cs2)C2=N[C@@](C)(CS2)C(=O)N2CCC[C@H]2C(=O)O1 [ab6_161b Proline acyl]

IC50 [6, 10]: 2.69 µM
SMILES: CCCCCCCC(=O)SCCCCC=CC1CC(=O)NCc2nc(cs2)C2=NC(C)(CS2)C(=O)NC(C(C)C)C(=O)O1 (stereo not shown) [ab6_162b]

X50 (curve fit, activity versus concentration) ([6]; HDAC2, logistic fit of scatter plots, Conc (uM)): X50 = 1.677E12 uM
SMILES: CCCCCCCC(=O)SCC/C=C/[C@@H]1CC(=O)NCc2nc(cs2)C2=N[C@@](C)(CS2)C(=O)N[C@@H](C(C)C)C(=O)N1 [ab6_1236 acyl amide]

SMILES: CCCCCCCC(=O)SCC/C=C/[C@@H]1CC(=O)NCc2nc(cs2)C2=N[C@@](C)(CS2)C(=O)N[C@@H](C(C)C)C(=O)O1 [largazole (1), largazole, reference compound]
IC50 [6]: 7.14 µM
IC50 [8]: 45 to 315 nM
